The values that follow are results of earlier work, collected in patent US20070197568A1 (priority 2005, published 2007).

SMILES strings stand for the structures.

For this data set the following is noted: animals, at doses that inhibit tumor growth.

Turning to `O=C(CCCCCCC(=O)Nc1ccccc1)NO` [SAHA, N-Hydroxy-N′-phenyl octanediamide], the “toxicity to the animal” value was “no toxicity”.
